In ChEMBL document CHEMBL3988442, “University of Dundee, Small-Polar-MMV Screening Library” (2021):

Key:
Tryptophan--tRNA ligase = Tryptophan--tRNA ligase (Mycobacterium tuberculosis (strain ATCC 25618 / H37Rv), UniProt P9WFT3); test: Biochemical assay for Mt-TrpRS; type: functional
ClpP1P2 = ClpP1P2 (Mycobacterium tuberculosis (strain ATCC 25618 / H37Rv), UniProt P9WPC3+P9WPC5); test: in vitro assay to detect presence of AMC directly proportional to the activity of ClpP1P2. GHDDI collaboration.; type: functional
Schistosoma mansoni = test: High throughput screening of compounds against Schistosoma mansoni motility; type: functional; parameters: dose or concentration left out as unconfirmed
Plasmodium falciparum = test: Calibr Malaria Delayed Death Assay SOP; type: functional, organism-based
[1] = microbe, parasite or virus in culture; conditions: Mycobacterium tuberculosis, 96 h, read-out: pIC50 (converted)
[2] = microbe, parasite or virus in culture; conditions: Mycobacterium tuberculosis, 72 h, read-out: pIC50 (converted)

Chain of ClpP1P2 (P9WPC5 whole entry): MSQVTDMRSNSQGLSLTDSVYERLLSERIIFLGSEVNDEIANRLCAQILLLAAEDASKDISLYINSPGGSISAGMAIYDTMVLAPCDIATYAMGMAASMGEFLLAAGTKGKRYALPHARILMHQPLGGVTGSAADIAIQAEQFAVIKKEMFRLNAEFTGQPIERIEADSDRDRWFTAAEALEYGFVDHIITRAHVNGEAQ
Chain of ClpP1P2 (P9WPC3 whole entry): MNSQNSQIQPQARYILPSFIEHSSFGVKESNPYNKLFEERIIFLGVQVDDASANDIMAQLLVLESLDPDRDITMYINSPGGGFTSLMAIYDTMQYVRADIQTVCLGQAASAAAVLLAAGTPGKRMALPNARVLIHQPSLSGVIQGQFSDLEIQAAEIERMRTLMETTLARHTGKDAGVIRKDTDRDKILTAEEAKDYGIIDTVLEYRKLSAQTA
Chain of Tryptophan--tRNA ligase (P9WFT3 whole entry): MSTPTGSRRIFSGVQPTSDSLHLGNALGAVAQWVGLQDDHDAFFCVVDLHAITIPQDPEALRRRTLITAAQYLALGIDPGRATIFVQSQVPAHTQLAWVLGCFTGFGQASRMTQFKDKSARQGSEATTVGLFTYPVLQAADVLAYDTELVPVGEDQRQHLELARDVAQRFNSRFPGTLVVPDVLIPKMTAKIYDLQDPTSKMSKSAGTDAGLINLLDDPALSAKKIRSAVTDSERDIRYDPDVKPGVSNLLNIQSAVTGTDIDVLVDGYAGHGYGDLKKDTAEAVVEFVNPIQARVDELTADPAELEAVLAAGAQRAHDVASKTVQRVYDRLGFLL

Row | SMILES | IC50 (Tryptophan--tRNA ligase) [µM] | other results
1 | COc1ccc2c(c1)C(=O)CC1(CCN(Cc3ccc(F)cc3)CC1)O2 | > 195 | IC50 (ClpP1P2): > 100 µM
2 | O=C(CCc1cc(O)no1)N1CCCC(COc2ccc(F)cc2)C1 (stereo unspecified) | > 195 | Percent Effect (Schistosoma mansoni): 28.51%
3 | CO[C@H]1CCN(Cc2ccoc2)C[C@@H]1Cc1ccccc1.O=C(O)C(F)(F)F | > 195 | pIC50 (Plasmodium falciparum): 5.889; IC50 (Plasmodium falciparum; Plasmodium falciparum): 1.2 µM
4 | CC(=O)N1CCCC(c2ccc(Cc3ccccc3)cn2)C1 (stereo unspecified) | > 195 | IC50 [1]: 23.5 µM; IC50 [2]: 15.3 µM
5 | CO[C@H]1CN(S(=O)(=O)c2ccc(F)cc2)C[C@@]12CCCO2 | > 195 | IC50 (ClpP1P2): > 100 µM
6 | CCO[C@H]1CC[C@H]2[C@@H]1OCCN2C(=O)COc1ccccc1 | > 195 | IC50 [1]: > 50.1 µM; IC50 [2]: > 50.1 µM
7 | CCN1CC[C@@H]2OC[C@H](C(=O)NCc3cccs3)C[C@@H]2C1 | > 195 | IC50 (ClpP1P2): > 100 µM
8 | Cn1ccc(-c2cc(C(=O)N3CCC(O)CC3)c3ccccn23)n1 | > 195 | IC50 (ClpP1P2): > 100 µM; IC50 [1]: > 50.1 µM; IC50 [2]: > 50.1 µM
9 | CN(C)C(=O)c1cccc(CN2CCN(CCO)CC2)c1 | > 195 | IC50 (ClpP1P2): > 100 µM
10 | Cc1cc(C(F)(F)F)nn1CCCNC(=O)C1CCCO1 (stereo unspecified) | > 195 | 
11 | Cc1nn(C)cc1C(=O)N1CCC(CSc2ccccc2)C1 (stereo unspecified) | > 195 | 
12 | c1cnc(N2CCC(c3n[nH]c4ncccc34)C2)nc1 (stereo unspecified) | > 195 | 
13 | COCCC(=O)N1CCC(C(=O)c2cc(C)cnc2N)CC1 | > 195 | IC50 [1]: > 50.1 µM; IC50 [2]: > 50.1 µM
14 | COCCn1cnnc1C1CCCN(C(C)C)C1 (stereo unspecified) | > 195 | 
15 | CN1CCC(c2cccc(Cc3ccccc3)n2)CC1 | > 195 | 
16 | O=C(COc1cccc(Cl)c1)N1CCOCC1c1ncon1 (stereo unspecified) | > 195 | 
17 | COCC1CC2(CCN(Cc3nccs3)CC2)CN1Cc1ccccn1 (stereo unspecified) | > 195 | 
18 | CNC(=O)C1(CCCc2ccncc2)CCN1 (stereo unspecified) | > 195 | 
19 | CN(C)CCn1c([C@H]2CCCO2)cc2cccnc21 | > 195 | 
20 | CC(=O)N1CCCC(c2ccnc(N(C)C)n2)C1 (stereo unspecified) | > 195 | 
21 | COCCC(=O)N1CCC2(COCc3cnc(-c4cccnc4)nc32)C1 (stereo unspecified) | > 195 | 
22 | O=C(NCCCn1ccnc1)c1cccnc1OCC(F)(F)F | > 195 | 
23 | CC(C)c1ncc(CN2CCC(CO)C2)cn1 (stereo unspecified) | > 195 | 
24 | Cc1csc(Nc2nccnc2C2CCCN2CC(N)=O)n1 (stereo unspecified) | > 195 | 

Row | SMILES | IC50 (Tryptophan--tRNA ligase) [µM] | other results
25 | CS(=O)(=O)c1nccn1Cc1ccc(F)cc1Cl | > 195 | 
26 | COc1ccccc1C(=O)N1CC(=O)N(CC2CC2)CC(O)C1 (stereo unspecified) | > 195 | 
27 | COc1cccc(F)c1CN1CCC(c2nc(C)cc(C)n2)C1 (stereo unspecified) | > 195 | 
28 | Cc1nc(C)c(C(=O)NCCNC(=O)Cc2ccc(F)cc2)s1 | > 195 | 
29 | NCc1cnn(-c2ccccc2C(=O)NCCc2ccccn2)c1 | > 195 | 
30 | CCOCC(O)CNc1cncc(Br)c1 (stereo unspecified) | > 195 | 
31 | O=C1CN(CC2CC2)Cc2nc(NCc3ccccc3)sc21 | > 195 | 
32 | CNc1cccc(C2CCCN(C(=O)c3ccn(C)n3)C2)n1 (stereo unspecified) | > 195 | 
33 | CCCNc1ccc(C(=O)NCCc2cccc(OC)c2)cn1 | > 195 | 
34 | COCCN(C)C(=O)c1nc2c(s1)CCCN2C | > 195 | 
35 | COCc1cncc2c1CCN(C(=O)c1cscn1)C2 | > 195 | 
36 | c1cncc(CN2CCN3C[C@H](Oc4cncnc4)C[C@H]3C2)c1 | > 195 | 
37 | OC1CCN(Cc2c(-c3ccco3)[nH]c3ncccc23)CC1 | > 195 | 
38 | CCn1cc(N)c(-c2nnc3n2CCC3)n1 | > 195 | 
39 | NC(=O)CN1CCOCC(Cc2ccccc2Cl)C1 (stereo unspecified) | > 195 | 
40 | CN1CC[C@@H]2OC[C@H](C(=O)N(C)Cc3ccccn3)C[C@@H]2C1 | > 195 | 
41 | CC(CC#N)n1ccc(C(F)(F)F)n1 (stereo unspecified) | > 195 | 
42 | CCCC(=O)N1CCCCC1c1nccc(C)n1 (stereo unspecified) | > 195 | 
43 | CS(=O)(=O)c1snnc1C1CCN(Cc2cccnc2)CC1 | > 195 | 
44 | OC(CNc1ccc(Cl)cn1)CN1CCOCC1 (stereo unspecified) | > 195 | 
45 | CS(=O)(=O)NC1CCN(C(=O)NCC2CCCO2)CC1 (stereo unspecified) | > 195 | 
46 | NC(=O)CN1CCC2(CC1)CC(=O)c1ccc3ccccc3c1O2 | > 195 | IC50 (ClpP1P2): > 100 µM
47 | CSc1ccccc1C(=O)NCc1cc2n(n1)CCCN(CC(C)C)C2 | > 195 | 
48 | COc1c(C(=O)N2CCNC(=O)C2)cnc2c1c(C)nn2C | > 195 | 

Row | SMILES | IC50 (Tryptophan--tRNA ligase) [µM] | other results
49 | CC(=O)N(C)C(c1cccc(F)c1)c1ccccn1 (stereo unspecified) | > 195 | 
50 | Cn1cccc1C(=O)N1CC2(CCN(C(=O)c3cccnc3)C2)C1 | > 195 | 
51 | O=C(CCc1cccnc1)N1CCC(c2cnccn2)CC1 | > 195 | 
52 | OC1CCCN(Cc2ccnc(-c3cccnc3)n2)C1 (stereo unspecified) | > 195 | 
53 | Cn1nccc1CN1CCCC(COc2ccccc2F)C1 (stereo unspecified) | > 195 | 
54 | COCCC(=O)N1CCCC(c2nc(O)cc(-c3ccncc3)n2)C1 (stereo unspecified) | > 195 | 
55 | CC(=O)N1CCCC(c2cccc(-n3ccnc3)n2)C1 (stereo unspecified) | > 195 | 
56 | O=C(c1ccccc1)N1CCO[C@@H]2CN(Cc3ccc[nH]3)C[C@@H]2C1 | > 195 | 
57 | NCCC(=O)Nc1ccc(-c2ccccc2)cc1 | > 195 | 
58 | CC(=O)N1CCCC(Cc2nccn2C)C1 (stereo unspecified) | > 195 | 
59 | O=C(NCCN1CCOCC1)Nc1cnc2cc(Cl)ccc2c1O | > 195 | 
60 | CC(=O)N1N=C(c2cccs2)OC1C(=O)NCCc1cccc(Cl)c1 (stereo unspecified) | > 195 | 
61 | Fc1ccc2c(c1)C1(CCNCC1)CC2NC1CC1 (stereo unspecified) | > 195 | 
62 | Cc1cc(-c2cnn(CCNC(=O)Cc3ccccn3)c2C2CC2)on1 | > 195 | 
63 | CN(C)c1nccc(C2CCN(C3CCCCC3O)CC2)n1 (stereo unspecified) | > 195 | 
64 | COCC(=O)N1CCOC(c2ccc(N(C)C)cn2)C1 (stereo unspecified) | > 195 | 
65 | CNC(=O)COC1COC2(CCN(Cc3cccnc3)CC2)C1 (stereo unspecified) | > 195 | 
66 | CN(C)CCNC(=O)c1nc2c(s1)CCCN2C(=O)C1CC1 | > 195 | 
67 | O=C(c1ccccn1)N1CCC(c2nc(O)cc(-c3ccncc3)n2)C1 (stereo unspecified) | > 195 | 
68 | Cc1c(C(=O)N2CCC(O)(CN(C)C)C2)c2ccccc2n1C (stereo unspecified) | > 195 | 
69 | CCCC(=O)N1CCCC(c2ccccn2)C1 (stereo unspecified) | > 195 | 
70 | Cc1ccc(N2CCc3ncnc(C)c3CC2)nn1 | > 195 | 
71 | COc1cccc(CNCc2cccnc2)c1 | > 195 | 
72 | NC(=O)N1CCc2ncc(CNC(=O)CC3CC3)n2CC1 | > 195 | 

Row | SMILES | IC50 (Tryptophan--tRNA ligase) [µM] | other results
73 | CCCC1CN(CC(C)C)C(=O)c2cccnc2O1 (stereo unspecified) | > 195 | 
74 | Cn1ncc(NC(=O)c2noc3c2CCCC3)c1C(N)=O | > 195 | 
75 | COCCN1CC=C(c2cccc(OC)c2)CC1 | > 195 | 
76 | COc1cccc(C2=CCN(CCN3CCOC3=O)CC2)c1 | > 195 | 
77 | CC(C)c1cc(CN2CCC(N)CC2)on1 | > 195 | 
78 | O=C(c1cccnn1)N1C[C@@H]2CC[C@H](Oc3cccc(F)c3)[C@@H]2C1 | > 195 | 
79 | CCOCCN1CCC(C(=O)c2cc(F)ccc2F)CC1 | > 195 | 
80 | CCc1ncnc2c1CCN(CCOC)CC2 | > 195 | 
81 | CN(C)CCO[C@H]1CN(CC2CC2)[C@@H]2CCCO[C@H]12 | > 195 | 
82 | Cc1sc2c(C3CCCN(C)C3)nc(C)n2c1C (stereo unspecified) | > 195 | 
83 | COc1cccc(OC)c1CN1CC(O)CN(S(C)(=O)=O)CC1=O (stereo unspecified) | > 195 | 
84 | c1cnc(N2CCCC(c3n[nH]c4ncccc34)C2)nc1 (stereo unspecified) | > 195 | 
85 | CC(C)N(C)CC(=O)N(C)C(c1cccc(F)c1)c1ccccn1 (stereo unspecified) | > 195 | 
86 | CC(=O)c1cc2ncc(C(=O)NC3CC3)cc2[nH]1 | > 195 | 
87 | O=C(c1cccnc1Oc1ccc(Cl)cc1)N1CC[C@@H](O)C1 | > 195 | 
88 | CN(C)c1ccc(CC2COCCN(Cc3nccn3C)C2)nn1 (stereo unspecified) | > 195 | 
89 | Cn1cc(C(=O)NCc2cncc3c2CCN(c2ccccn2)C3)cn1 | > 195 | 
90 | O=C1CC[C@H]2[C@H](CCN2c2ncccn2)N1c1ccccc1 | > 195 | 
91 | O=C(CN1CCOC1=O)N1CC[C@@H](c2ccc3ccccc3c2)[C@H](O)C1 | > 195 | 
92 | COc1c(C(=O)N2CCC(CSc3ccccc3)C2)c(C)nn1C (stereo unspecified) | > 195 | 
93 | O=C(NCc1ccccn1)c1cnc(C2CCCN2)cn1 (stereo unspecified) | > 195 | 
94 | O=C(NCC1CC2(CO1)CN(Cc1cccs1)C2)C1CCC1 (stereo unspecified) | > 195 | 
95 | O=C1CO[C@@H]2CN(S(=O)(=O)c3ccc(F)cc3)C[C@H]2N1 | > 195 | 
96 | CS(=O)(=O)CC(=O)N1C[C@H]2CCC[C@@]2(COc2ccccn2)C1 | > 195 | 

Row | SMILES | IC50 (Tryptophan--tRNA ligase) [µM] | other results
97 | OCc1nnc2n1CCN(c1cnccn1)C2 | > 195 | 
98 | Cc1ccnc(N2CCC(C(N)=O)CC2)n1 | > 195 | 
99 | CC(C)(C)C(=O)CN1Cc2ccccc2NCCC1=O | > 195 | 
100 | Cc1nc(O)cc(C2CCN(Cc3ccc(F)c(F)c3)C2)n1 (stereo unspecified) | > 195 | 
101 | CCc1noc(CN2CCN(c3nccs3)CC2)n1 | > 195 | 
102 | O=C(Cn1ccnc1)N1C[C@@H]2CC[C@H](Oc3ccccc3F)[C@@H]2C1 | > 195 | 
103 | CSCCC(NC(=O)c1nc(SC)ncc1Cl)C(=O)O (stereo unspecified) | > 195 | 
104 | Cn1cncc1CN1CC[C@](C)(O)[C@@H](Oc2cccc(F)c2)C1 | > 195 | 
105 | COCCN1C(=O)CO[C@H]2CN(Cc3ccccc3Cl)C[C@@H]21 | > 195 | 
106 | CCn1cnnc1CNC(=O)NC(c1cccs1)C1CCCC1 (stereo unspecified) | > 195 | 
107 | Cc1nccc(N2CCCC2CCNS(C)(=O)=O)n1 (stereo unspecified) | > 195 | 
108 | CCCS(=O)(=O)N1C[C@@H](c2ccccc2)[C@@]2(CCNC2=O)C1 | > 195 | 
109 | O=C(NCc1ccccn1)c1cncc(C2CCCN2)n1 (stereo unspecified) | > 195 | 
110 | CCCC1CN(CCOc2ccccc2)C(=O)c2cccnc2O1 (stereo unspecified) | > 195 | 
111 | COc1cc(NC2CCCNC2)cc(OC)c1 (stereo unspecified) | > 195 | 
112 | NC(=O)CN1CCOCC(Cc2ccccc2)C1 (stereo unspecified) | > 195 | 
113 | CCOC1CC2(CCN(Cc3nccn3C)CC2)C1 | > 195 | 
114 | COc1ccc2c(c1)CN(Cc1ccco1)C(=O)CCN2 | > 195 | 
115 | CCc1n[nH]c(C(=O)NCCn2ccc(C)n2)c1C | > 195 | 
116 | CN(C)c1cncc(C2CCN(CC(N)=O)CC2)n1 | > 195 | 
117 | COc1c(CNC2CCCN(c3ncccn3)C2)c(C(C)C)nn1C (stereo unspecified) | > 195 | 
118 | Cc1ccc2cc(CNCCN3CCCC3)c(=O)[nH]c2c1 | > 195 | 
119 | Cc1ncsc1C(=O)N(Cc1ccccn1)C1CC1 | > 195 | 
